Data taken from patent US20240425464A1, “Substituted Monohydrazides as Potent Antifungal Agents” (University of Kentucky Research Foundation, priority 2023, published 2024).
Values after ≈ are worked out from the molar mass of the structure shown. Where two headings read alike, the source gives them in different places.

Key:
Assay in all cases: MIC determination by in vitro antifungal assay
Format in all cases: cell-based, Candida auris
C. auris AR Bank #383 = test system: C. auris AR Bank #383
Experimental: (§1) The antifungal agent amphotericin B (AmB) was purchased from VWR (Radnor PA, USA). AmB was dissolved in DMSO at a final concentration of 5 mg/mL and was stored at −20° C., protected from light. Candida albicans American Type Culture Collection (ATCC) 10231 (strain A), C. albicans ATCC 64124 (B), and C. albicans ATCC MYA-2876 (C) were obtained from Utah State University. C. albicans ATCC 90819 (D), C. albicans ATCC MYA-2310 (E), C. albicans ATCC MYA-1237 (F), C. albicans ATCC MYA-1003 (G), Candida glabrata ATCC 2001 (H), Candida krusei ATCC 6258 (I), Candida parapsilosis ATCC 22019 (J), Cryptococcus neoformans ATCC MYA-895 (M), Aspergillus terreus ATCC MYA-3633 (N), and Aspergillus flavus ATCC MYA-3631 (0) were obtained from the American Type Culture Collection (ATCC; Manassas, VA, USA). Aspergillus nidulans ATCC 38163 (P) was obtained from University of Kentucky. Clinically derived Aspergillus fumigatus NRRL 163 (Q), A. fumigatus NRRL 5109 (R), and A. fumigatus NRRL 6113 (S) were obtained from Northern Regional Research Laboratory (NRRL). Candida auris 384 (K), C. auris 390 (L), and fungal strains 381-400 (including 10 C. auris (AR Bank #381-390), 3 Candida duobushaemulonii (AR Bank #391, AR Bank #392, and AR Bank #394), 2 Candida haemulonii (AR Bank #393 and AR Bank #395), 1 Kodameae ohmeri (AR Bank #396), 1 C. krusei (AR Bank #397), 1 Candida lusitaniae (AR Bank #398), and 2 Saccharomyces cerevisiae strains (AR Bank #399 and AR Bank #400)) were part of a larger fungal library from the AR Bank maintained by the Centers for Disease Control and Prevention (CDC; Atlanta, GA, USA). Filamentous fungi and yeasts were cultivated at 35° C. in RPMI 1640 medium (with L-glutamine, without sodium bicarbonate, Sigma-Aldrich, St. Louis, MO) buffered to a pH of 7.0 with 0.165 M morpholinepropanesulfonic acid (MOPS) buffer (Sigma-Aldrich). For cytotoxicity assays, HepG2 and the mouse macrophage cell line J774A.1 were obtained from University of Kentucky. The human embryonic kidney cell line, HEK-293, was bought from the ATCC. Mammalian cells were grown in Dulbecco's Modified Eagle's Medium (DMEM) (from VWR) with 10% fetal bovine serum (FBS) (from VWR) and 1% Pen/Strep (from ATCC). Cell lines were cultured at 37° C. with 5% CO2 and passaged by trypsinization with 0.05% trypsin: 0.53 mM EDTA (from Sigma-Aldrich).
(§2) From the actively growing yeast culture, 100 µL were then transferred to 900 μL of RPMI 1640 medium and re-adjusted to achieve OD600 of 0.12 (˜1×10^6 CFU/mL). The cell suspension was further diluted to achieve 1:100 in RPMI 1640 medium.

C. auris AR Bank #388 = test system: C. auris AR Bank #388
Experimental: as §1, §2

C. auris AR Bank #381 = test system: C. auris AR Bank #381
Experimental: as §1, §2

C. auris AR Bank #389 = test system: C. auris AR Bank #389
Experimental: as §1, §2

C. auris AR Bank #385 = test system: C. auris AR Bank #385
Experimental: as §1, §2

C. auris AR Bank #387 = test system: C. auris AR Bank #387
Experimental: as §1, §2

C. auris AR Bank #382 = test system: C. auris AR Bank #382
Experimental: as §1, §2

C. auris AR Bank #386 = test system: C. auris AR Bank #386
Experimental: as §1, §2

[1] = test system: C. auris strain AR Bank #390 (L)
Experimental: as §1, §2
Finally, the activity of these monohydrazides was explored against […] non-Candida strains: Cryptococcus neoformans ATCC MYA-895 (M), Aspergillus terreus ATCC MYA-3633 (N), Aspergillus flavus ATCC MYA-3631 (O), Aspergillus nidulans ATCC 38163 (P), Aspergillus fumigatus NRRL 163 (Q), A. fumigatus NRRL 5109 (R), and A. fumigatus NRRL 6113 (S) (Tables 1A and 1B). The double dilution method was used with concentrations ranging from 0.06 to 31.3 j·tg mL^−1 for monohydrazides 1a-9j, and the commercially available positive antifungal control amphotericin B (AmB).

[2] = Candidozyma auris, C. auris AR Bank # 383 (Table 2B), read-out: MIC
[3] = Candidozyma auris, C. auris AR Bank # 388 (Table 2B), read-out: MIC
[4] = Candidozyma auris, C. auris AR Bank # 381 (Table 2B), read-out: MIC
[5] = Candidozyma auris, C. auris AR Bank # 389 (Table 2B), read-out: MIC
[6] = Candidozyma auris, C. auris AR Bank # 385 (Table 2B), read-out: MIC
[7] = Candidozyma auris, C. auris AR Bank # 387 (Table 2B), read-out: MIC
[8] = Candidozyma auris, C. auris AR Bank # 382 (Table 2B), read-out: MIC
[9] = Candidozyma auris, C. auris AR Bank # 386 (Table 2B), read-out: MIC
[10] = Candidozyma auris, C. auris AR Bank # 390 (L) (Table 2B), read-out: MIC
[11] = Candidozyma auris, strain L = C. auris AR Bank # 0390 (Tables 1A/1B), read-out: MIC
[12] = strain L = C. auris AR Bank # 0390 (Tables 1A/1B)

## O=C(NNc1cccc(Cl)c1)c1ccc(F)cc1F [Compound 1b]
C. auris AR Bank #383; [2]
  MIC: 15.6 µg/mL (≈ 55.2 µM)
C. auris AR Bank #388; [3]
  MIC: 3.9 µg/mL (≈ 13.8 µM)
C. auris AR Bank #381; [4]
  MIC: 3.9 µg/mL (≈ 13.8 µM)
C. auris AR Bank #389; [5]
  MIC: 3.9 µg/mL (≈ 13.8 µM)
C. auris AR Bank #385; [6]
  MIC: 3.9 µg/mL (≈ 13.8 µM)
C. auris AR Bank #387; [7]
  MIC: 7.8 µg/mL (≈ 27.6 µM)
C. auris AR Bank #382; [8]
  MIC: 3.9 µg/mL (≈ 13.8 µM)
C. auris AR Bank #386; [9]
  MIC: 7.8 µg/mL (≈ 27.6 µM)
[1]; [10]
  MIC: 7.8 µg/mL (≈ 27.6 µM)
[1]; [11]
  MIC: 7.8 µg/mL (≈ 27.6 µM)

## O=C(NNc1ccc(Cl)cc1)c1ccccn1 [Compound 2e]
C. auris AR Bank #383; C. auris AR Bank #383
  MIC: 1.95 μg/mL^−1
C. auris AR Bank #388; C. auris AR Bank #388
  MIC: 1.95 μg/mL^−1
C. auris AR Bank #381; C. auris AR Bank #381
  MIC: 1.95 μg/mL^−1
C. auris AR Bank #389; C. auris AR Bank #389
  MIC: 0.98 μg/mL^−1
C. auris AR Bank #385; C. auris AR Bank #385
  MIC: 1.95 μg/mL^−1
C. auris AR Bank #387; C. auris AR Bank #387
  MIC: 1.95 μg/mL^−1
C. auris AR Bank #382; C. auris AR Bank #382
  MIC: 3.9 μg/mL^−1
C. auris AR Bank #386; C. auris AR Bank #386
  MIC: 0.98 μg/mL^−1
[1]; C. auris AR Bank #390 (L)
  MIC: 1.95 μg/mL^−1
[1]; [12]
  MIC: 1.95 μg/mL^−1

## O=C(NNc1cccc(Cl)c1)c1ccccn1 [Compound 2b]
C. auris AR Bank #383; C. auris AR Bank #383
  MIC: 0.49 μg/mL^−1
C. auris AR Bank #388; C. auris AR Bank #388
  MIC: 0.49 μg/mL^−1
C. auris AR Bank #381; C. auris AR Bank #381
  MIC: 0.98 μg/mL^−1
C. auris AR Bank #389; C. auris AR Bank #389
  MIC: 0.49 μg/mL^−1
C. auris AR Bank #385; C. auris AR Bank #385
  MIC: 0.49 μg/mL^−1
C. auris AR Bank #387; C. auris AR Bank #387
  MIC: 0.49 μg/mL^−1
C. auris AR Bank #382; C. auris AR Bank #382
  MIC: 0.49 μg/mL^−1
C. auris AR Bank #386; C. auris AR Bank #386
  MIC: 0.24 μg/mL^−1
[1]; C. auris AR Bank #390 (L)
  MIC: 0.49 μg/mL^−1
[1]; [12]
  MIC: 0.98 μg/mL^−1

## O=C(NNc1ccc(F)cc1)c1cccc(Br)n1 [Compound 6d]
C. auris AR Bank #383; [2]
  MIC: 1.95 µg/mL (≈ 6.29 µM)
C. auris AR Bank #388; [3]
  MIC: 0.98 µg/mL (≈ 3.16 µM)
C. auris AR Bank #381; [4]
  MIC: 1.95 µg/mL (≈ 6.29 µM)
C. auris AR Bank #389; [5]
  MIC: 1.95 µg/mL (≈ 6.29 µM)
C. auris AR Bank #385; [6]
  MIC: 0.98 µg/mL (≈ 3.16 µM)
C. auris AR Bank #387; [7]
  MIC: 0.98 µg/mL (≈ 3.16 µM)
C. auris AR Bank #382; [8]
  MIC: 0.98 µg/mL (≈ 3.16 µM)
C. auris AR Bank #386; [9]
  MIC: 1.95 µg/mL (≈ 6.29 µM)
[1]; [10]
  MIC: 3.9 µg/mL (≈ 12.6 µM)
[1]; [11]
  MIC: 0.98 µg/mL (≈ 3.16 µM)

## O=C(NNc1ccc(F)cc1)c1cccc(F)n1 [Compound 5d]
C. auris AR Bank #383; [2]
  MIC: 1.95 µg/mL (≈ 7.82 µM)
C. auris AR Bank #388; [3]
  MIC: 0.49 µg/mL (≈ 1.97 µM)
C. auris AR Bank #381; [4]
  MIC: 0.98 µg/mL (≈ 3.93 µM)
C. auris AR Bank #389; [5]
  MIC: 0.98 µg/mL (≈ 3.93 µM)
C. auris AR Bank #385; [6]
  MIC: 0.49 µg/mL (≈ 1.97 µM)
C. auris AR Bank #387; [7]
  MIC: 0.49 µg/mL (≈ 1.97 µM)
C. auris AR Bank #382; [8]
  MIC: 0.98 µg/mL (≈ 3.93 µM)
C. auris AR Bank #386; [9]
  MIC: 0.98 µg/mL (≈ 3.93 µM)
[1]; [10]
  MIC: 1.95 µg/mL (≈ 7.82 µM)
[1]; [11]
  MIC: 0.98 µg/mL (≈ 3.93 µM)

## O=C(NNc1cccc(F)c1)c1ccccn1 [Compound 2a]
C. auris AR Bank #383; C. auris AR Bank #383
  MIC: 1.95 μg/mL^−1
C. auris AR Bank #388; C. auris AR Bank #388
  MIC: 0.49 μg/mL^−1
C. auris AR Bank #381; C. auris AR Bank #381
  MIC: 0.49 μg/mL^−1
C. auris AR Bank #389; C. auris AR Bank #389
  MIC: 0.12 μg/mL^−1
C. auris AR Bank #385; C. auris AR Bank #385
  MIC: 0.98 μg/mL^−1
C. auris AR Bank #387; C. auris AR Bank #387
  MIC: 0.49 μg/mL^−1
C. auris AR Bank #382; C. auris AR Bank #382
  MIC: 0.98 μg/mL^−1
C. auris AR Bank #386; C. auris AR Bank #386
  MIC: 0.49 μg/mL^−1
[1]; C. auris AR Bank #390 (L)
  MIC: 0.24 μg/mL^−1
[1]; [12]
  MIC: 0.33 μg/mL^−1

## O=C(NNc1ccc(F)cc1F)c1ncc(F)cc1F [Compound 7g]
C. auris AR Bank #383; [2]
  MIC: 3.9 µg/mL (≈ 13.7 µM)
C. auris AR Bank #388; [3]
  MIC: 3.9 µg/mL (≈ 13.7 µM)
C. auris AR Bank #381; [4]
  MIC: 3.9 µg/mL (≈ 13.7 µM)
C. auris AR Bank #389; [5]
  MIC: 3.9 µg/mL (≈ 13.7 µM)
C. auris AR Bank #385; [6]
  MIC: 0.98 µg/mL (≈ 3.44 µM)
C. auris AR Bank #387; [7]
  MIC: 1.95 µg/mL (≈ 6.84 µM)
C. auris AR Bank #382; [8]
  MIC: 1.95 µg/mL (≈ 6.84 µM)
C. auris AR Bank #386; [9]
  MIC: 1.95 µg/mL (≈ 6.84 µM)
[1]; [10]
  MIC: 7.8 µg/mL (≈ 27.3 µM)
[1]; [11]
  MIC: 1.95 µg/mL (≈ 6.84 µM)

## O=C(NNc1ccc(F)cc1F)c1ccc(F)cn1 [Compound 3g]
C. auris AR Bank #383; [2]
  MIC: 1.95 µg/mL (≈ 7.3 µM)
C. auris AR Bank #388; [3]
  MIC: 1.95 µg/mL (≈ 7.3 µM)
C. auris AR Bank #381; [4]
  MIC: 1.95 µg/mL (≈ 7.3 µM)
C. auris AR Bank #389; [5]
  MIC: 1.95 µg/mL (≈ 7.3 µM)
C. auris AR Bank #385; [6]
  MIC: 0.49 µg/mL (≈ 1.83 µM)
C. auris AR Bank #387; [7]
  MIC: 0.98 µg/mL (≈ 3.67 µM)
C. auris AR Bank #382; [8]
  MIC: 1.95 µg/mL (≈ 7.3 µM)
C. auris AR Bank #386; [9]
  MIC: 1.95 µg/mL (≈ 7.3 µM)
[1]; [10]
  MIC: 3.9 µg/mL (≈ 14.6 µM)
[1]; [11]
  MIC: 3.9 µg/mL (≈ 14.6 µM)
